Entries after “also recorded” stand apart in the source; their conditions may differ.
What was measured:
[1] = test system: morphine analgesic tolerance, inflammatory pain rat model; test: Effect on morphine analgesic tolerance in Carr-induced inflammatory pain rat model; format: in vivo; details: for effect on morphine analgesic tolerance: every 2 h
Protocol: The Carr-induced inflammatory pain model was built according to a published method (Alessandri-Haber N, et al. Neurosci. Vol 29(19), pp. 6217-6288, 2009) for evaluating an analgesic effect of drugs administered by intraplantar injection. Specifically, 6 μL of 1 wt % Carr solution was injected into the rats between the 2nd and 3rd toes of a left hind paw to induce hyperalgesia, which was manifested as plantar swelling and a declined pain threshold of the rats within 1 hour after the injection. Those rats with a PWT lower than 100 gf were considered to be a desired Carr-induced inflammatory pain model, those rats with the PWT higher than 100 gf was removed.
(1) 24 healthy adult SD rats, weighing 180-220 g, were selected, reinjected with 6 μL of a 1 wt % Carr solution and divided into 4 groups randomly and averagely (i.e., groups A-D). The group A was injected with normal saline; the group B was intradermally injected with 0.1 μg/kg of the short peptide P10581 through the plantar surface of the left hind paw; the group C was intradermally injected with 0.1 μg/kg of the short peptide P10581 and then with 5 mg/kg of morphine 30 min later through the plantar surface of the left hind paw; and the group D was intradermally injected with 0.05 μg/kg of the short peptide P10581, and then with 5 mg/kg of morphine 30 min later through the plantar surface of the left hind paw. 1 h later, the PWT of each group was recorded when the mechanical withdrawal of the left hind paw occurred, and each rat was measured 3-5 times at an interval of 5-10 min.
(2) The drug was injected every 2 h according to the above-mentioned administration dose and time (seven times in total), and the PWT was recorded.
(S1) By means of molecular biological techniques, two cysteine residues (Cys10 and Cys11) in the short peptide P10581 were replaced with alanine (Ala), and the resulting peptide was named P10581-1 (SEQ ID NO: 2).
(S2) Three cysteine residues (Cys10, Cys11 and Cys17) in the short peptide P10581 were replaced with alanine (Ala), and the resulting peptide was named P10581-2 (SEQ ID NO: 3).
The rat was injected with 6 μL of 1 wt % Carr to establish a Carr-induced inflammatory pain model, and the effect of the short peptides P10581, P10581-1 and P10581-2 on the morphine analgesic tolerance was analyzed according to Experimental Example 1. […]

[2] = test system: morphine analgesic tolerance, BCP rat model; test: Effect on morphine analgesic tolerance in BCP rat model; format: in vivo
Protocol: The successfully-established BCP model rats were divided into 4 groups randomly on the 22nd day after modeling, where the group A was injected with 0.2 μg/kg of the short peptide P10581; the group B was injected with 0.2 μg/kg of the short peptide P10581, and injected with 5 mg/kg of the morphine 30 min later; the group C was injected with 0.4 μg/kg of the short peptide P10581; and the group D was injected with 0.4 μg/kg of the short peptide P10581, and injected with 5 mg/kg of the morphine 30 min later. 1 h later, the PWT of the right hind paw of each group was recorded. Each of the rats was measured 3-5 times with an interval of 5-10 min, and the PWTs were averaged to taken as the practical PWT (unit: g). The drug administration was performed twice a day (at 9:30 a.m. and 4:30 p.m.) for consecutive 4 days, and the PWT of each group before and after the administration in the morning was measured.
ΔPWT (%) in FIG. 15D was calculated as follows: ΔPWT(%)=100*{[PWT(post-drug)−PWT(pre-drug)]/ΔPWT(Maxi)}(%): […]

WKCNPNDDKCCRPKLKC [P10581]
effect on morphine analgesic tolerance ([1]; 0.05 μg/kg peptide i.d. 30 min before 5 mg/kg morphine): morphine analgesic tolerance can be eliminated; also recorded: completely eliminate the morphine analgesic tolerance | duration of eliminating effect on morphine analgesic tolerance ([1]; 0.1 μg/kg and 0.05 μg/kg peptide with 5 mg/kg morphine): over 14 h | effect on morphine analgesic tolerance ([1]; 0.1 μg/kg peptide i.d. 30 min before 5 mg/kg morphine): morphine analgesic tolerance can be eliminated; also recorded: completely eliminated | dose at which morphine analgesic tolerance is effectively alleviated ([1]; inflammatory pain, rats): ≥ 0.05 µg/kg | reversal of morphine analgesic tolerance for BCP ([2]; 0.2 μg/kg peptide S.C. before 5 mg/kg morphine, twice a day, 4 days): 73.9% | restoration of analgesic effect of morphine on BCP ([2]; 0.4 μg/kg peptide S.C. before 5 mg/kg morphine, repeated): completely restored | dose at which morphine analgesic tolerance is effectively eliminated ([2]; BCP, rats): ≥ 0.20 µg/kg

From patent US11612634B2 (priority 2020, dated 2023)
